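Values below derive from 48-hour exposures of cells grown in 96-well plates, with endpoints linearly interpolated between the two concentrations bracketing the appropriate inhibition level. Abbreviation: GI50, concentration required for 50% inhibition of growth.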 The source made the active and inactive calls. Rule as the data show it: active = GI50 up to about 1.1 µM and inactive = higher. Where a SMILES comes first, the peptide text is derived from it. Square brackets hold non-standard residues; d marks the D form. Peptide text beside a SMILES is read from it.

The values that follow come from ChEMBL document CHEMBL1201862, “PubChem BioAssay data set” (2004).

Among the test systems are SNB-19; HCT-15; DU-145; NCI-H522; NCI/ADR-RES; NCI-H23; MDA-MB-231; MOLT-4; HCT-116; HOP-62; SNB-75; CCRF-CEM; NCI-H226; ACHN; SR; SW-620; SF-295; A549; PC-3; MDA-MB-435.
Holding throughout (assay): DTP human tumour cell line panel, 48 h

Usually GI50 stands for the concentration at which growth is held to half of that of the control. With `CC1=C(N2CC2)C(=O)C(CO)=C(N2CC2)C1=O`, the GI50 with SNB-19 was 0.0927 µM (active); with HCT-15, 0.0151 µM; in the assay with DU-145 it was < 0.01 µM (active); with NCI-H522, 0.013 µM (active); with NCI/ADR-RES, 0.0106 µM (active); with NCI-H23, 0.0169 µM (active). Further, the GI50 in the assay on MDA-MB-231 was 0.173 µM (active); in the assay on MOLT-4, 0.0129 µM (active); in the assay with HCT-116, < 0.0291 µM (active); with HOP-62, 0.0144 µM (active); in the assay on SNB-75, 0.031 µM (active); with CCRF-CEM, < 0.01 µM (active). The GI50 in the assay with NCI-H226 is 0.0506 µM (active); with ACHN it was < 0.01 µM (active); in the assay with SR, < 0.01 µM (active); in the assay on SW-620, 0.0123 µM (active); in the assay on SF-295 it was 0.013 µM (active).
As for `CCS(=O)(=O)Nc1ccc(Nc2c3ccccc3nc3ccccc23)c(OC)c1`, the GI50 in the assay on SNB-19 is 0.273 µM (active); in the assay on HCT-15, 0.682 µM; with A549, 0.0205 µM (active); in the assay with NCI-H522 it was 1.2 µM (inactive); in the assay with NCI/ADR-RES it was 5 µM (inactive); in the assay with NCI-H23, 0.203 µM (active). For the same compound, the GI50 is < 0.01 µM (active) in the assay with MOLT-4; 1.19 µM (inactive) in the assay with HCT-116; 0.067 µM (active) in the assay on HOP-62; 0.284 µM (active) with SNB-75; 0.0485 µM (active) with CCRF-CEM; 0.331 µM (active) in the assay on NCI-H226. Further, the GI50 was 0.527 µM (active) with SW-620 and 0.13 µM (active) with SF-295.
With `CN(C)c1cccc(OC(=O)NCCCl)c1`, the GI50 is > 100 µM (inactive) in the assay with SNB-19; over 100 µM in the assay on HCT-15; > 100 µM (inactive) in the assay on A549; > 100 µM (inactive) in the assay with NCI-H522; > 100 µM (inactive) in the assay on NCI/ADR-RES; > 100 µM (inactive) in the assay with NCI-H23. Further, the GI50 in the assay on MOLT-4 is > 100 µM (inactive); with HCT-116, > 100 µM (inactive); in the assay on HOP-62, > 100 µM (inactive); in the assay with SNB-75, 63.8 µM (inactive); in the assay with CCRF-CEM, 68.2 µM (inactive); with NCI-H226 it was > 100 µM (inactive). For the same compound, the GI50 in the assay with SW-620 and in the assay with SF-295 was > 100 µM (inactive) in each case.
Turning to `O=C(C#CP(=O)(O)c1ccccc1)c1ccccc1`, the GI50 in the assay with SNB-19 was > 100 µM (inactive); with HCT-15, over 100 µM; with DU-145, > 100 µM (inactive); in the assay on A549 it was > 100 µM (inactive); in the assay with NCI-H522, > 100 µM (inactive); with NCI/ADR-RES it was > 100 µM (inactive). Moreover, the GI50 in the assay on NCI-H23, in the assay with PC-3, in the assay on HCT-116, in the assay with HOP-62, with SNB-75 and with MDA-MB-435 was > 100 µM (inactive) in each case. Also, the GI50 with ACHN, in the assay with SR, in the assay with SW-620 and with SF-295 was > 100 µM (inactive) each time.
With `Cc1cc(/N=N/c2ccc(/N=N/c3c(O)c(S(=O)(=O)O)cc4cc(S(=O)(=O)O)ccc34)cc2C)ccc1/N=N/c1ccc2cc(S(=O)(=O)O)cc(S(=O)(=O)O)c2c1`, the GI50 in the assay on SNB-19 was > 100 µM (inactive); in the assay with HCT-15, over 100 µM; with A549, > 100 µM (inactive); in the assay on NCI-H522, > 100 µM (inactive); in the assay on NCI/ADR-RES, > 100 µM (inactive); in the assay with NCI-H23 it was > 100 µM (inactive). Besides, the GI50 was > 100 µM (inactive) in the assay on MOLT-4; > 100 µM (inactive) with HCT-116; > 100 µM (inactive) with HOP-62; > 100 µM (inactive) in the assay with SNB-75; > 100 µM (inactive) in the assay with CCRF-CEM; > 50.2 µM (inactive) with NCI-H226. In addition, the GI50 in the assay on SW-620 was > 100 µM (inactive); in the assay with SF-295 it was > 77.1 µM (inactive).
For the compound `O=C(CCN1CCOCC1)C(=Cc1ccccc1)C(=O)CCN1CCOCC1`, the GI50 in the assay on SNB-19 was 14.9 µM (inactive); with HCT-15, 2.1 µM; with A549 it was 18.1 µM (inactive); with NCI-H522 it was 1.5 µM (inactive); in the assay with NCI/ADR-RES, 2.46 µM (inactive); in the assay with NCI-H23 it was 2.3 µM (inactive). Besides, the GI50 was 1.32 µM (inactive) in the assay with MOLT-4; 2.29 µM (inactive) in the assay on HCT-116; 21.2 µM (inactive) in the assay on HOP-62; 15.5 µM (inactive) in the assay with SNB-75; 0.796 µM (active) with CCRF-CEM; 14.6 µM (inactive) in the assay on NCI-H226. In addition, the GI50 in the assay with SW-620 is 1.92 µM (inactive); in the assay on SF-295 it was 15.6 µM (inactive).
Consider `CN(/N=N/c1[nH]cnc1C(N)=O)C1CCCCC1`, for which the GI50 was > 100 µM (inactive) in the assay with SNB-19; over 100 µM in the assay on HCT-15; > 100 µM (inactive) in the assay on A549; > 100 µM (inactive) with NCI-H522; > 100 µM (inactive) with NCI-H23; 49.1 µM (inactive) with MOLT-4. For the same compound, the GI50 was 50.4 µM (inactive) in the assay with HCT-116; > 100 µM (inactive) in the assay with HOP-62; 34.6 µM (inactive) in the assay on SNB-75; 55.2 µM (inactive) in the assay with CCRF-CEM; > 100 µM (inactive) in the assay with NCI-H226; > 100 µM (inactive) in the assay on ACHN. In addition, the GI50 in the assay with SR was 30.7 µM (inactive); in the assay on SW-620 it was 69 µM (inactive); with SF-295 it was 86.7 µM (inactive).
Turning to `O=c1[nH]c(=O)n(COCc2ccccc2)cc1Nc1ccc(Br)cc1`, the GI50 in the assay with SNB-19 is > 100 µM (inactive); with HCT-15 it was over 100 µM; in the assay on DU-145, > 100 µM (inactive); with A549 it was > 100 µM (inactive); with NCI/ADR-RES, > 100 µM (inactive); in the assay on NCI-H23, > 100 µM (inactive). Besides, the GI50 was > 100 µM (inactive) with MOLT-4; > 100 µM (inactive) in the assay with PC-3; > 100 µM (inactive) with HCT-116; 17.1 µM (inactive) in the assay with HOP-62; > 100 µM (inactive) with CCRF-CEM; > 100 µM (inactive) in the assay on MDA-MB-435. Moreover, the GI50 was > 100 µM (inactive) in the assay with NCI-H226; > 100 µM (inactive) in the assay on ACHN; > 100 µM (inactive) in the assay on SR; > 100 µM (inactive) in the assay with SW-620; 44.5 µM (inactive) in the assay with SF-295.
In the case of `O=C(NC/C=C/CO)c1ccccc1`, the GI50 was > 100 µM (inactive) in the assay with SNB-19; over 100 µM in the assay with HCT-15; > 100 µM (inactive) in the assay with A549; > 100 µM (inactive) in the assay with NCI-H522; > 100 µM (inactive) in the assay on NCI/ADR-RES; > 100 µM (inactive) in the assay with NCI-H23. In addition, the GI50 in the assay with MOLT-4 is > 100 µM (inactive); in the assay on HCT-116 it was > 100 µM (inactive); in the assay with HOP-62, > 100 µM (inactive); with SNB-75 it was 65.8 µM (inactive); in the assay on CCRF-CEM it was > 100 µM (inactive); with NCI-H226, > 100 µM (inactive). Also, the GI50 in the assay on SW-620 and in the assay on SF-295 was > 100 µM (inactive) each time.
Regarding `Clc1ccc(/N=c2\oc3ccccc3cc2-c2nc3ccccc3[nH]2)c(Cl)c1`, the GI50 is > 100 µM (inactive) in the assay on SNB-19; over 100 µM in the assay on HCT-15; > 100 µM (inactive) in the assay with DU-145; 78.5 µM (inactive) with NCI-H522; > 100 µM (inactive) with NCI/ADR-RES; 78.5 µM (inactive) with NCI-H23. Further, the GI50 in the assay on MOLT-4 was > 100 µM (inactive); with PC-3, > 100 µM (inactive); in the assay on HCT-116 it was > 100 µM (inactive); in the assay with HOP-62, 24.3 µM (inactive); in the assay on CCRF-CEM, > 100 µM (inactive); in the assay with MDA-MB-435, > 100 µM (inactive). Besides, the GI50 is 31 µM (inactive) in the assay with ACHN, > 100 µM (inactive) in the assay on SR, > 100 µM (inactive) in the assay with SW-620 and > 100 µM (inactive) in the assay with SF-295.
Turning to `CC(C)C[C@H](NC(=O)[C@H](CC(C)C)NC(=O)[C@@H](Cc1c[nH]c2ccccc12)NC(=O)[C@H](Cc1ccccc1)NC(=O)[C@@H](Cc1c[nH]c2ccccc12)NC(=O)[C@H](CCC(N)=O)NC(=O)[C@@H](CCC(N)=O)NC(=O)[C@@H]1CCCN1C(=O)[C@@H](CCCCN)NC(=O)[C@H]1CCCN1C(=O)[C@H](N)CCCN=C(N)N)C(N)=O` (H-[dR][dP][dK]P[dQ]Q[dW]F[dW]LL-NH2), the GI50 with SNB-19 is 44.9 µM (inactive); in the assay on HCT-15 it was over 100 µM; in the assay on A549 it was > 100 µM (inactive); in the assay with NCI-H522 it was > 100 µM (inactive); with NCI/ADR-RES, > 100 µM (inactive); in the assay on NCI-H23, > 100 µM (inactive). Besides, the GI50 in the assay on MOLT-4 is > 27.4 µM (inactive); in the assay on HCT-116 it was > 100 µM (inactive); in the assay on HOP-62, > 100 µM (inactive); with SNB-75, > 100 µM (inactive); in the assay with CCRF-CEM, > 100 µM (inactive); in the assay on NCI-H226 it was > 100 µM (inactive). Also, the GI50 in the assay with SW-620 was > 100 µM (inactive); in the assay on SF-295, 63.5 µM (inactive).
As for `CC1NC(=O)CNC(=O)CNC(=O)C(Cc2ccc(O)cc2)NC(=O)C(C(C)C)NC(=O)C(C)NC1=O` (stereo not drawn) (cyclo(GGAAVY); configuration not given here), the GI50 in the assay with SNB-19 is > 100 µM (inactive); in the assay with HCT-15 it was over 100 µM; with A549 it was > 100 µM (inactive); with NCI/ADR-RES it was > 100 µM (inactive); with NCI-H23 it was > 100 µM (inactive); in the assay with MOLT-4, > 100 µM (inactive). Further, the GI50 in the assay with HCT-116, with HOP-62, with SNB-75, in the assay on CCRF-CEM, with NCI-H226 and in the assay with SW-620 was > 100 µM (inactive) each time. Also, in the assay on SF-295, the GI50 was > 100 µM (inactive).
